Measured values from patent US10954267B2, “Dipeptide comprising a non-proteogenic amino acid” (Novo Nordisk A/S, priority 2011, dated 2021).
Square brackets hold non-standard residues; d marks the D form. Peptide text beside a SMILES is read from it. * marks the point of attachment. Fmoc = O=C(OCC1c2ccccc2-c2ccccc21)*; Aib = CC(C)(N)C(=O)O

Assay: Storage stability studies of the dipeptide TFA salt
Type: physicochemical
Description: Fmoc-His(Trt)-Aib-OH (1 moleq., starting material) was suspended in DCM (1.5 mL/g) and TIPS (1.7 moleq.) was added. Cooled (0-10° C.) TFA (3 mL/g) was added and the mixture was stirred at ambient temperature until the reaction was completed (High-performance liquid chromatography (HPLC) conversion). DME (1 mL/g starting material) and TBME (11 mL/g starting material) was added leading to an increase in temperature. The temperature was slowly allowed to return to room temperature (rt) resulting in precipitation of a white solid. The mixture was stirred for an additional 3 hr and filtered. The precipitate was washed twice with TBME (3 mL/g starting material) and dried overnight in vacuo affording the de-tritylated dipeptide as TFA-salt in 90% yield.

Measured: stability (storage)

CC(C)(NC(=O)[C@H](Cc1c[nH]cn1)NC(=O)OCC1c2ccccc2-c2ccccc21)C(=O)O [Example 1, 2-[(S)-2-(9H-Fluoren-9-ylmethoxycarbonylamino)-3-(1H-imidazol-4-yl)-propanoylamino]-2-methyl-propanoic Acid Trifluoracatate] (Fmoc-His-[Aib]-OH)
more than 24 month: freeze (<−15° C.±5° C.) | fridge (5° C.±3° C.) | room temperature (20° C.±3° C.)
